Measurements taken from patent publication US6747009B2, “Peptidomimetic glutathione analogs” (Universiteit Leiden, priority 2002, dated 2004).
Numbered stars: 1 amine (or outer) side, 2 acyl side, 3 side chain; on linkers, the order of the positions; unused ones are H or OH. Square brackets hold non-standard residues; d marks the D form. Peptide text beside a SMILES is read from it. * marks the point of attachment. ξ: configuration not given here. γGlu = O=C(O)[C@H](CCC(=O)[*:2])N[*:1]; ξPhg = NC(C(=O)O)c1ccccc1; Bn = c1ccc(C*)cc1

Tests used:
[1] = molecular target: T1, human GSTP1-1 (Homo sapiens, UniProt P09211); test: GST inhibition assay (CDNB conjugation), Ki and % inhibition; assay type: biochemical; conditions: for inhibition at 50 µM: 1 mM GSH, 1 mM CDNB, 50 μM inhibitor, relative to non-inhibited rate
T1 construct: purchased PanVers Corporation (Madison, Wis., USA)
T1 sequence (P09211 2-210 limits assumed): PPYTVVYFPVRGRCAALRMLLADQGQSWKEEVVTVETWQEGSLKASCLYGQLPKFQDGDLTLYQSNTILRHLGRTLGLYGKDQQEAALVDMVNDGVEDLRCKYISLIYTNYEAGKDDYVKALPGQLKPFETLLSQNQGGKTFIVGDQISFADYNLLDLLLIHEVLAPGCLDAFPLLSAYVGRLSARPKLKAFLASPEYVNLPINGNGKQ
Protocol: (§1) Human recombinant GST isoenzymes A1-1, M1-1 and P1-1 were used for the GST inhibition assays. Experiments were performed according to Habig et al; (1974), J. Biol. Chem. 249, 7130-7139, modified for a 96-wells plate-reader assay. The purified human GST isoenzymes (10-20 ng/ml) were incubated with or without inhibitor (50 μM) in the presence of 8 different concentrations (50 μM-4 mM) GSH at 37° C. in 0.1 M potassium phosphate buffer pH 6.5/1 mM EDTA. The reaction was initiated by addition of CDNB in ethanol (final concentration 1 mM, 1% ethanol in assay mix), after which the formation of GS-DNB was spectrophotometrically monitored at 340 nm. Reaction rates were corrected for the non-enzymatic conjugate formation. Kt values (table 1) were determined using the Km, app method according to Kakkar et al. (1999), Drug Metab. Dispos. 27, 756-762; Kakkar et al. (2000), J. Pharmacol. Exp. Ther. 293, 861-869. Experiments were performed three times with quadruple measurements.

[2] = molecular target: T2, human GSTM1-1 (Homo sapiens, UniProt P09488); test: GST inhibition assay (CDNB conjugation), Ki determination; assay type: biochemical; conditions: human recombinant GSTM1-1; ± SD; 50 μM inhibitor, 50 μM-4 mM GSH, 1 mM CDNB, pH 6.5
T2 construct: purchased PanVers Corporation (Madison, Wis., USA)
T2 sequence (P09488 2-218 limits assumed): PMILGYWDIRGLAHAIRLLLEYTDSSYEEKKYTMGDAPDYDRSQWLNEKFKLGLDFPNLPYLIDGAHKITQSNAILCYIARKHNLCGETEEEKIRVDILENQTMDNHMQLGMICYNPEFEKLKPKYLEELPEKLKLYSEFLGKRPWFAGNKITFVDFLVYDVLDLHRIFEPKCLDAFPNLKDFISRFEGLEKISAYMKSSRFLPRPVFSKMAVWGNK
Protocol: as §1

[3] = molecular target: T3, human GSTA1-1 (Homo sapiens, UniProt P08263); test: as above; assay type: biochemical; conditions: human recombinant GSTA1-1; ± SD; 50 μM inhibitor, 50 μM-4 mM GSH, 1 mM CDNB, pH 6.5
T3 construct: purchased PanVers Corporation (Madison, Wis., USA)
T3 sequence (P08263 1-222): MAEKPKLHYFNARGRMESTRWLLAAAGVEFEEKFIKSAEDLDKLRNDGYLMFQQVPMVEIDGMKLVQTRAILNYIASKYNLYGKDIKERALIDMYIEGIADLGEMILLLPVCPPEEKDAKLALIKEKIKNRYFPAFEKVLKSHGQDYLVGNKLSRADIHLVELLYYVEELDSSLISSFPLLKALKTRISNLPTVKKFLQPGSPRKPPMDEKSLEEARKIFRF
Protocol: as §1

[4] = system: bovine kidney γ-glutamyl transpeptidase; test: Stability towards γ-glutamyl transpeptidase (RP-HPLC disappearance of parent); assay type: in vitro ADME; conditions: pH 7.4
Protocol: Peptide isosteres were incubated with 0.25 mg/ml bovine γ-glutamyltranspeptidase in 0.1M Tris-HCl buffer pH=7.4. At the appropriate time-point a sample (100 μL) was taken, heat inactivated and stored on ice until HPLC analysis. Disappearance of the indicated compounds was determined by RP-HPLC. Open markers indicate γGT sensitive compounds, closed markers are γGT stabilized.
The rate of degradation was determined by incubating 250 μM of GluPhg-Benzyl, RedPhg-Benzyl and UtPhg-Benzyl at 37° C. with 0.25 mg/ml bovine kidney γ-glutamyl transpeptidase in 0.1 M Tri-HCl buffer, pH 7.4, supplemented with 0.1 mM EDTA. At selected time-intervals, a 100 μL sample was taken, heat-inactivated, and stored on ice until HPLC-analysis. Analysis was performed by RP-HPLC on an Altech Platinum C18 column, using 50 mM ammonium acetate buffer pH 3.8, supplemented with 10-20% acetonitrile (optimized for the various peptide analogues) as eluent. Disappearance of the parent peak was determined by UV absorbency at […]. Remaining percentage of the parent compounds was determined as ratio of peak areas relative to the initial (t=0min) value.
The rate of degradation was determined by incubating 250 μM of the GS-EA analogues at 37° C. with 0.25 mg/ml bovine kidney γ-glutamyltranspeptidase in 0.1M Tris-HCl buffer, pH=7.4, supplemented with 0.1mM EDTA. At selected time-intervals, a 100 μL sample was taken, heat-inactivated, and stored on ice until HPLC-analysis. Analysis was performed by RP-HPLC on an Alltech Platinum C18 column, using 50mM ammonium acetate buffer pH=3.8, supplemented with 10-20% acetonitrile (optimized for the various peptide analogues) as eluent. Disappearance of the […] peak and emergence of the corresponding dipeptide-EA conjugate was detected by UV absorbency at 270 nm. Remaining percentage of the parent compounds was determined as ratio of peak areas relative to the initial (t=0 min) value. Results were corrected for non-peptidase mediated degradation of the ethacrynic acid conjugates.

[5] = system: rat liver cytosolic GSTs (S100); test: Inhibition of rat liver cytosolic GSTs (S100), CDNB conjugation; assay type: biochemical; conditions: S100, 1 mM GSH, 1 mM CDNB, pH 6.5, six inhibitor concentrations
Protocol: Inhibition of GST mediated CDNB-conjugation was tested at pH=6.5, in the presence of non-limiting concentrations of GSH (1 mM) and CDNB (1 mM). The shown data are averages of three separate determinations. For clarity, error-bars were not included. […] Open markers with dotted lines indicate γGT sensitive compounds, closed markers with closed lines are γGT stabilized structures.
Freshly isolated rat livers were emulsified in 0.1M KCl using a Potter-Elvehjem homogeniser. After initial centrifugation for 30 minutes at 9000 g, the resulting supernatant was subjected to a second centrifugation for 75 minutes at 10^5 g. The cytosolic protein containing supernatant (S100) was used for the GST inhibition experiments. GST inhibition experiments were performed. All solutions were kept on ice until use. Various concentrations of the inhibitions were incubated at 37° C. with rat liver cytosol (1 μl, containing […] of total protein) in sodium-phosphate buffer, pH 6.5, supplemented with 0.1 mM EDTA and 1 mM GSH. Reaction was started by adding 4 μL CDNB in ethanol (final concentration=1 mM, maximal ethanol content=2% v/v). Formation of the GS-CDNB conjugate was followed at 340 nm for 5 minutes. Initial reaction velocities were corrected for the spontaneous (not GST catalyzed) reaction rates. Inhibition was determined as percentage of the non-inhibited reaction rate. Experiments were performed three times with duplicate measurements.
GST inhibition was tested at six concentrations of the GS-EA mimics.

[6] = system: JNK in MTLn3 cells; test: JNK activation (phospho-JNK immunoblot); assay type: cell-based; conditions: MTLn3/Neo and MTLn3/GSTπ; 50 μM Et2-RP-Bzl, Et2-UrP-Bzl or 20 μM TER199; 8 hours
Protocol: Confluent monolayers of VCREMS, MTLn3/Neo (3 clones) and MTLn3/GSTπ (3 clones) cells in 12-well culture dishes were exposed for 8 or 16 hours to 50 μM of Et2-RP-Bzl, Et2-UrP-Bzl or 20 μM TER199 (all di-ethyl esters) in full medium at 37° C. Cells were then washed and subsequently scraped in ice-cold PBS. For MTLn3 cells, suspensions of the three different neo and three different GSTπ clones were combined. After centrifugation (10 min, 250 g, 4° C.), the cells were lysed by ultrasonication in cold TSB (10 mM Tris, 250 mM sucrose, 1 mM EGTA, pH 7.4), containing protease inhibitors (50 mM Na3VO4, 10 μg/ml leupeptin, 10 μg/ml pepstain, 1 mM phenylmethylsulfonylfuloride). Protein concentration was determined using the Bradford protein assay, using IgG as a standard.
For GSTπ blotting, non-reducing and non-denaturing conditions were used to keep GSTP in its original (homodimer) state. JNK blots were subjected to standard Western blotting sample pre-treatment protocols. Twenty micrograms of total cellular protein was separated by SDS-polyacrylamide gel electrophoresis and subsequently transferred to polyvinylidene difluoride membrane (Millipore). […] Active JNK was detected by an alkaline phosphatase coupled goat antibody, which was visualized with the Tropix kit (PerkinElmer Life Sciences).

[7] = system: VCREMS cells; test: Modulation of thiotepa cytotoxicity (cell proliferation by DNA content); assay type: cell-based; conditions: read-out: IC50 value of thiotepa, No Inh
Protocol: (§2) Cells (MCF7, VCREMS, 3 MTLn3/neo clones and 3 MTLn3/GSTP1-1 clones) were seeded at 10^4 cells/well in 24-wells polyethylene culture dishes. […] Various concentrations (3 μM-10 mM) of thiotepa (in serum-free medium) were added. After 4 hrs at 37° C., cells were washed twice with PBS, and subsequently incubated for 72 hours in culture medium (in absence of inhibitor). The cells were then rinsed once with BPS and lysed by repeated freeze-thaw cycles in 200 μl water, followed by homogenization on a rotary shaker. […] Stained DNA was measured by spectrofluorometry (excitation: 360 nm, emission 465 nm). A calibration curve of calf thymus DNA was used to determine total DNA quantities. Growth curves were calculated using the IC50 module of the enzyme kinetics program Grafit (version 3.0, Erithacus Software Ltd.).

[8] = system: MCF7 cells; test: as above; assay type: cell-based; conditions: Homo sapiens, MCF7, read-out: IC50 value of thiotepa, No Inh
Protocol: as §2

[9] = system: MTLn3/GSTπ cells; test: as above; assay type: cell-based; conditions: read-out: IC50 value of thiotepa, No Inh
Protocol: as §2

[10] = system: MTLn3/Neo cells; test: as above; assay type: cell-based; conditions: read-out: IC50 value of thiotepa, No Inh
Protocol: as §2

[11] = 250 μM compound, 0.25 mg/ml bovine kidney γGT, 37° C.

## N[C@@H](CCC(=O)N[C@@H](CSCc1ccccc1)C(=O)NC(C(=O)O)c1ccccc1)C(=O)O (stereo partly drawn) [GluPhg-Benzyl (I), γ-L-glutamyl-L-cysteinyl(benzyl)-D-phenylglycine, reference compound] (γGlu-Cys(Bn)-[ξPhg]-OH)
[1]
  Ki: 0.8 ± 0.3 µM
[2]
  Ki: 21 ± 4 µM
[3]
  Ki: 23 ± 6 µM

## CCC(CSC[C@H](NC(=O)CC[C@H](N)C(=O)O)C(=O)NCC(=O)O)C(=O)c1ccc(OCC(=O)O)c(Cl)c1Cl (stereo partly shown) [I, γ-Glu[Cys(EA)-Gly-OH]—OH, reference compound]
[4]; [11]
  stability towards γGT (in words): cleaved rapidly
  time to complete degradation of the GSH backbone by γGT: ≤ 20 min

## CN(C(=O)CC[C@H](N)C(=O)O)[C@@H](CS)C(=O)NCC(=O)O [III, γ-Glu[MeCys-Gly-OH]—OH]
[5]
  inhibition of rat liver cytosolic GSTs (in words): a decrease in inhibition was seen

## N[C@@H](CCCN[C@@H](CSCc1ccccc1)C(=O)NC(C(=O)O)c1ccccc1)C(=O)O (stereo partly shown) [RedPhg-Benzyl (II)]
[1]
  Ki: 6 ± 3 µM
  inhibition at 50 µM: 81%
[2]
  Ki: 29 ± 6 µM
[3]
  Ki: 55 ± 11 µM

## CCOC(=O)[C@@H](N)CCC(=O)N[C@@H](CSCc1ccccc1)C(=O)N[C@@H](C(=O)OCC)c1ccccc1 [TER199]
[6]
  phospho-JNK (JNK1, JNK2) formation: a small band appeared just below the 54 kDa active JNK2 band

## N[C@@H](COC(=O)N[C@@H](CSCc1ccccc1)C(=O)NC(C(=O)O)c1ccccc1)C(=O)O (stereo partly shown) [UrPhg-Benzyl (III), H-Glo[Cys(Bzl)-Phg-OH]-OH]
[1]
  Ki: 3 ± 2 µM
  inhibition at 50 µM: 93%
[2]
  Ki: 16 ± 2 µM
[3]
  Ki: 29 ± 4 µM

## S=P(N1CC1)(N1CC1)N1CC1 [thiotepa]
[7]
  IC50: 2840 ± 1100 µM
[8]
  IC50: 699 ± 50 µM
[9]
  IC50: 219 ± 21 µM
[10]
  IC50: 164 ± 9 µM

## H-Glo[Cys(EA)-Gly-OH]—OH [VI]
[5]
  inhibition of rat liver cytosolic GSTs (in words): efficient γGT stable inhibitors

## H-Glu[Ψ(CH2NH)-Cys(EA)-Gly-OH]—OH [V]
[5]
  inhibition of rat liver cytosolic GSTs (in words): efficient γGT stable inhibitors

## γ-Glu[2-amino-1-mercapto(S-EA)-6-hexanoic acid]-OH [IV]
[5]
  inhibition of rat liver cytosolic GSTs (in words): poor inhibitor of cytosolic GSTs
[4]; [11]
  stability towards γGT (in words): very sensitive towards γGT mediated cleavage

## γ-Glu[Cys(EA)-Src-OH]—OH [II]
[5]
  inhibition of rat liver cytosolic GSTs (in words): comparable inhibition pattern to compound I
[4]
  t½ of γGT mediated hydrolysis: approximately equal to the half-life of GS-EA
